Test results reported in US4432973A, “Benzoyl- and α-hydroxybenzyl-phenyl-glycosides and application thereof in therapeutics” (Societe de Recherches Industrielles (S.O.R.I.), priority 1980, dated 1984).

Key:
[1] = Acute toxicity in the mouse by the I.P. route; assay type: in vivo; settings: for LD50: read-out: DL-50 (lethal dose involving the death of half of the animals)
Text: The acute toxicity was studied in the mouse by the I.P. route. It is expressed in the form of DL-50 (lethal dose involving the death of half of the animals) or DL-0 (maximum non-lethal dose).

[2] = Veinous thrombosis: veinous anti-thrombus activity; assay type: in vivo; settings: Rattus norvegicus, ip, 100 mg/kg I.P., 4 to 5 hours after administration, read-out: Diminution of veinous thrombus
Method: The technique used is similar to the one described by Peterson-Zucker in Thrombo.Diath.Haemorh. 23, 1, (1970).
An occlusive thrombus is created in the […] vena cava of a rat by the combined action of an endothelial alteration and a veinous stasis for 15 mins. and 4 to 5 hours after administration of the product to be tested (100 mg/kg I.P.).

[3] = Anti-hypoxic activity: survival to hypoxia (nitrogen-oxygen 95:5); assay type: in vivo, mouse (Swiss male); settings: I.P., 1/10th of LD-50 or 100 mg/kg when LD-0 ≥ 800 mg/kg; up to 15 minutes; mouse
Method: The experiment is carried out on batches of 20 Swiss male mice weighing from 20 to 30 g. Each product to be tested is administered to the mice by intraperitoneal route at a dose corresponding to 1/10th of the LD-50 or at a dose of 100 mg/kg when the LD-0 is higher than or equal to 800 mg/kg. The mice are placed in a nitrogen-oxygen (95:5) v/v atmosphere. The survival time of the mice is then measured up to 15 minutes maximum.
The results shown in Table VII are expressed in percentage of survival with respect to a non-treated control batch and a batch treated with an anti-hypoxic reference product [specialty known under the trade name of "Duxil" and which is constituted by a mixture of Almitrine bis-methanesulfonate and of Raubasine in the weight ratio 3:1], the anti-hypoxic reference product being administered at the dose of 18 mg/kg I.P.

[4] = Anti-ulcer activity: ulcer caused by aspirin; assay type: in vivo, rat (male Wistar); settings: 100 mg/kg I.P.; aspirin 192 mg/kg per os; standardised to control batch and cimetidine (index 1)
Method: The experiment is carried out on male Wistar rats of 180 to 200 g. The products to be tested are administered at 100 mg/kg I.P. (unless indicated to the contrary in Table IV).
At t=0, the rats are made to fast and a first administration of the product to be tested is made.
At t=18 hours, 2 ml of an ulcer-forming suspension with 192 mg of aspirin/kg are administered per os then a second administration of the product to be tested is made.
At t=22 hours, the animals are sacrificed and the ulcers are marked as follows: small point-like ulcers: mark 1 more extensive ulcers: mark 3 highly extensive or very deep ulcers: mark 9
This marking is standardised with respect to a control batch and to cimetidine (a reference product) to which index 1 has been allocated.

[5] = system: blood platelet aggregation; test: Spontaneous aggregation: blood platelet anti-aggregation activity; assay type: in vivo, rat (adult male); settings: t=5 hours, rat; for inhibition in vivo at 100 mg/kg: ip, 100 mg/kg I.P.
Method: The technique used is that of Sanders described in Laboratory Animal Science 27 (No. 5), pages 757-761 (1977).
After administration at 100 mg/kg I.P. (unless specified to the contrary in Table V hereinbelow) of the product to be tested to adult male reproducing rats, two blood samples are taken, one on sodium citrate and the other on sodium citrate treated with formaldehyde at instant t=5 hours.
After centrifugation of the samples, a platelet count is made on the supernatant liquid. The spontaneous aggregation index according to Wu and Hook Stroke 6, 521-524 (1975) is expressed by the relation: [formula]

Compound	LD50 ([1]; in vivo, ip, I.P.) [mg/kg]	inhibition in vivo at 100 mg/kg [2] [%]	Survival (survival percentage to hypoxic aggression) [3]	DL-0 (maximum non-lethal dose) ([1]; in vivo, ip) [mg/kg IP]	Ulcer index [4]	inhibition in vivo at 100 mg/kg ([5]; Platelet) [%]	other results
O=C(c1ccc(O[C@@H]2OC[C@@H](O)[C@H](O)[C@H]2O)cc1)c1ccccc1O [Example 125]	1700	30 to 49	+ (from 30 to 49%)				
O=[N+]([O-])c1ccccc1C(O)c1ccc(O[C@@H]2OC[C@@H](O)[C@H](O)[C@H]2O)cc1 (stereo partly drawn) [Example 101]		≥ 50	+ (from 30 to 49%)	> 800	0.56		
CC(=O)O[C@@H]1[C@@H](OC(C)=O)[C@H](Oc2ccc(C(=O)c3ccc([N+](=O)[O-])cc3)cc2C)OC[C@H]1OC(C)=O [Example 104]			++ (from 50 to 79%)	> 800	0.84	≥ 40	
CC(=O)O[C@@H]1[C@@H](OC(C)=O)[C@H](Oc2ccc(C(=O)c3cccc(C(F)(F)F)c3)cc2)OC[C@H]1OC(C)=O [Example 108]		30 to 49	+ (from 30 to 49%)	> 800	0.30		
O=[N+]([O-])c1ccc(C(O)c2ccc(O[C@@H]3OC[C@@H](O)[C@H](O)[C@H]3O)cc2)cc1 (stereo partly drawn) [Example 97, [4-(4-nitro-α-hydroxybenzyl)-phenyl]-β-D-xylopyranoside]	> 1000	≥ 50			0.52	≥ 40	
Cc1cc(C(=O)c2ccccc2C)ccc1O[C@@H]1OC[C@@H](O)[C@H](O)[C@H]1O [Example 85]	> 550	≥ 50	+ (from 30 to 49%)				
O=C(c1ccc(Cl)cc1)c1ccc(O[C@@H]2OC[C@@H](O)[C@H](O)[C@H]2O)cc1 [Example 3]		30 to 49	+++ (higher than or equal to 80%)	> 800			
OC(c1ccc(Cl)cc1)c1ccc(O[C@@H]2OC[C@@H](O)[C@H](O)[C@H]2O)cc1 (stereo partly drawn) [Example 94]			+ (from 30 to 49%)				DL-50 (lethal dose involving the death of half of the animals) ([1]; I.P.): 330 mg/kg IP; Inhibition of platelet aggregation ([5]; 33 mg/kg IP): + (inhibition of 25 to 39%)
Cc1ccccc1C(=O)c1ccc(O[C@@H]2OC[C@@H](O)[C@H](O)[C@H]2O)cc1 [Example 14]	740	≥ 50					inhibition in vivo at 75 mg/kg ([5]; Platelet, 75 mg/kg IP): ≥ 40%
Cc1ccc(C(=O)c2ccc(O[C@@H]3OC[C@@H](O)[C@H](O)[C@H]3O)cc2)cc1 [Example 12]			++ (from 50 to 79%)	> 800	0.26	25 to 39	
Cc1ccccc1C(=O)c1cc(C)c(O[C@@H]2OC[C@@H](O)[C@H](O)[C@H]2O)c(C)c1 [Example 21]	600				0.16	≥ 40	
CC(=O)N[C@H]1[C@H](Oc2ccc(C(O)c3ccc([N+](=O)[O-])cc3)cc2)O[C@H](CO)[C@@H](O)[C@@H]1O (stereo partly drawn) [Example 123]		30 to 49	++ (from 50 to 79%)	> 800			
CC(=O)N[C@H]1[C@H](Oc2ccc(C(=O)c3ccc(Cl)cc3)cc2)O[C@H](COS(=O)(=O)O)[C@@H](OS(=O)(=O)O)[C@@H]1OS(=O)(=O)O [Example 67, [4-(4-chlorobenzoyl)-phenyl]-3,4,6-tri-(ammonium-sulfate)-2-N-acetyl-β-D-glucosaminide]		30 to 49			0.81	25 to 39	DL-0 (maximum non-lethal dose) ([1]; I.P.): > 800 mg/kg IP
OC[C@H]1O[C@@H](Oc2ccc(C(O)c3ccc(Cl)cc3)cc2)[C@H](O)[C@@H](O)[C@@H]1O (stereo partly drawn) [Example 131]	730	30 to 49	++ (from 50 to 79%)				
OC(c1ccc(Cl)cc1)c1ccc(O[C@@H]2OC[C@@H](O)[C@H](O)[C@H]2O)cc1 (stereo partly drawn) [Example 91]		30 to 49	+++ (higher than or equal to 80%)	> 800	0.72		
CC(=O)O[C@@H]1[C@@H](OC(C)=O)[C@H](Oc2ccc(C(=O)c3ccc(C)cc3)cc2)OC[C@H]1OC(C)=O [Example 76]		30 to 49	++ (from 50 to 79%)	> 800	0.38		
CC(=O)O[C@@H]1[C@@H](OC(C)=O)[C@H](Oc2c(C)cc(C(=O)c3ccccc3Cl)cc2C)OC[C@H]1OC(C)=O [Example 113]	630		+++ (higher than or equal to 80%)				inhibition in vivo at 63 mg/kg ([5]; Platelet, 63 mg/kg IP): ≥ 40%
Nc1ccc(C(=O)c2ccc(O[C@@H]3OC[C@@H](O)[C@H](O)[C@H]3O)cc2)cc1 [Example 8]		≥ 50	+++ (higher than or equal to 80%)	> 800	0.25	≥ 40	
COc1ccc(C(=O)c2cccc(O[C@@H]3OC[C@@H](O)[C@H](O)[C@H]3O)c2)cc1 [Example 54]		30 to 49			0.57	≥ 40	DL-0 (maximum non-lethal dose) ([1]; I.P.): > 800 mg/kg IP
CC(=O)N[C@H]1[C@H](Oc2ccc(C(=O)c3ccc(C(F)(F)F)cc3)cc2)O[C@H](CO)[C@@H](O)[C@@H]1O [Example 118]			++ (from 50 to 79%)	> 800	0.53	25 to 39	
O=C(c1ccc(O[C@@H]2OC[C@@H](O)[C@H](O)[C@H]2O)cc1)c1ccc([N+](=O)[O-])cc1 [Example 1, [4-(4-nitrobenzoyl)-phenyl]-β-D-xylopyranoside]			+++ (higher than or equal to 80%)	> 800	0.56	≥ 40	
CC(=O)N[C@H]1[C@H](Oc2c(C)cc(C(=O)c3ccc([N+](=O)[O-])cc3)cc2C)O[C@H](CO)[C@@H](O)[C@@H]1O [Example 119]		≥ 50	+++ (higher than or equal to 80%)	> 800	0.47		
COc1cc(C(=O)c2ccc(O[C@@H]3OC[C@@H](OC(C)=O)[C@H](OC(C)=O)[C@H]3OC(C)=O)cc2)cc(OC)c1OC [Example 79]						≥ 40	DL-0 (maximum non-lethal dose) ([1]; I.P.): > 800 mg/kg IP
CC(=O)O[C@@H]1[C@@H](OC(C)=O)[C@H](Oc2c(C)cc(C(=O)c3ccc(Cl)cc3)cc2C)OC[C@H]1OC(C)=O [Example 114]			++ (from 50 to 79%)	> 800		25 to 39	
Cc1cc(C(O)c2ccccc2C)ccc1O[C@@H]1OC[C@@H](O)[C@H](O)[C@H]1O (stereo partly drawn) [Example 105]	450						inhibition in vivo at 45 mg/kg ([5]; Platelet, 45 mg/kg IP): 25 to 39%
O=[N+]([O-])c1cccc(C(O)c2ccc(O[C@@H]3OC[C@@H](O)[C@H](O)[C@H]3O)cc2)c1 (stereo partly drawn) [Example 87]	> 600	≥ 50			0.35		
